In patent US20260098053A1, “COMPOSITIONS AND METHODS FOR TREATING CNS DISORDERS” (SAGE THERAPEUTICS, INC., priority 2019, published 2026):

The compounds below were run against [35S]-TBPS binding, rat brain cortical membranes (assay: Steroid inhibition of [35S]-TBPS binding). Settings: Table 4, 3 nM [35S]-TBPS, in the presence of 5 mM GABA, read-out: TBPS IC50.
Method: [35S]-t-Butylbicyclophosphorothionate (TBPS) binding assays using rat brain cortical membranes in the presence of 5 mM GABA has been described (Gee et al, J. Pharmacol. Exp. Ther. 1987, 241, 346-353; Hawkinson et al, Mol. Pharmacol. 1994, 46, 977-985; Lewin, A. H et al., Mol. Pharmacol. 1989, 35, 189-194).
Briefly, cortices are rapidly removed following decapitation of carbon dioxide-anesthetized Sprague-Dawley rats (200-250 g). The cortices are homogenized in 10 volumes of ice-cold 0.32 M sucrose using a glass/teflon homogenizer and centrifuged at 1500×g for 10 min at 4° C. The resultant supernatants are centrifuged at 10,000×g for 20 min at 4° C. to obtain the P2 pellets. The P2 pellets are resuspended in 200 mM NaCl/50 mM Na—K phosphate pH 7.4 buffer and centrifuged at 10,000×g for 10 min at 4° C. This washing procedure is repeated twice and the pellets are resuspended in 10 volumes of buffer. Aliquots ([…]) of the membrane suspensions are incubated with 3 nM [^35S]-TBPS and […] aliquots of test drug dissolved in dimethyl sulfoxide (DMSO) (final 0.5%) in the presence of 5 mM GABA. The incubation is brought to a final volume of 1.0 mL with buffer. Nonspecific binding is determined in the presence of […] and ranged from 15 to 25%. Following a 90 min incubation at room temp, the assays are terminated by filtration through glass fiber filters (Schleicher and Schuell No. 32) using a cell harvester (Brandel) and rinsed three times with ice-cold buffer. Filter bound radioactivity is measured by liquid scintillation spectrometry. Non-linear curve fitting of the overall data for each drug averaged for each concentration is done using Prism (GraphPad). […] The concentration of test compound producing 50% inhibition (IC50) of specific binding and the maximal extent of inhibition (Imax) are determined for the individual experiments with the same model used for the overall data and then the means±SEM.s of the individual experiments are calculated.
Various compounds are or can be screened to determine their potential as modulators of [^35S]-TBPS binding in vitro. These assays are or can be performed in accordance with the above

Row | Structure (SMILES) | IC50 [µM]
1 | CC[C@]12CC[C@H]3[C@@H](CC=C4CC[C@](C)(O)CC[C@@]43C)[C@@H]1CC[C@@H]2C(=O)Cn1cc(C#N)cn1 [Example 35, 1-(2-((1S,3aS,3bS,8S,10aR,10bS,12aS)-12a-ethyl-8-hydroxy-8,10a-dimethyl-1,2,3,3a,3b,4,6,7,8,9,10,10a,10b,11,12,12a-hexadecahydrocyclohepta[a]cyclopenta[f]naphthalen-1-yl)-2-oxoethyl)-1H-pyrazole-4-carbonitrile] | < 0.1
2 | CC(=O)[C@H]1CCC[C@H]2[C@@H]3CC[C@@H]4C[C@](C)(O)CCC[C@]4(C)[C@H]3CC[C@]12C [Example 15, 1-((1S,4aS,4bR,6aR,8R,11aS,11bS,13aS)-8-hydroxy-8,11a,13a-trimethyloctadecahydro-1H-cyclohepta[a]phenanthren-1-yl)ethan-1-one] | < 0.1
3 | CC[C@]12CC[C@H]3[C@@H](CC[C@@H]4C[C@](C)(O)CC[C@@H]43)[C@@H]1CCC[C@@H]2C(C)=O [Example 27, 1-((1S,4aS,4bR,6aR,8R,10aS,10bR,12aS)-12a-ethyl-8-hydroxy-8-methyloctadecahydrochrysen-1-yl)ethanone] | < 0.1
4 | C[C@@]1(O)CCC[C@@]2(C)[C@H](CC[C@@H]3[C@@H]2CC[C@]2(C)[C@H](C(=O)Cn4cc(C#N)cn4)CCCC[C@@H]32)C1 [Example 61, 1-(2-((1R,5aS,5bR,7aR,9R,12aS,12bS,14aS)-9-hydroxy-9,12a,14a-trimethylicosahydrodicyclohepta[a,f]naphthalen-1-yl)-2-oxoethyl)-1H-pyrazole-4-carbonitrile] | 0.1 to 1
5 | CC[C@]1(O)CC[C@H]2CC[C@@H]3[C@H](CC[C@]4(C)[C@@H](C(C)=O)CCC[C@@H]34)[C@H]2CC1 [Example 49, 1-((1S,4aS,4bR,6aR,9S,11aS,11bR,13aS)-9-ethyl-9-hydroxy-13a-methyloctadecahydro-1H-cyclohepta[a]phenanthren-1-yl)ethanone] | > 1
6 | CC(=O)[C@H]1CCC[C@H]2[C@@H]3CC=C4CC[C@](C)(O)CC[C@]4(C)[C@H]3CC[C@]12C [Example 57, 1-((1S,4aS,4bS,9S,11aR,11bS,13aS)-9-hydroxy-9,11a,13a-trimethyl-2,3,4,4a,4b,5,7,8,9,10,11,11a,11b,12,13,13a-hexadecahydro-1H-cyclohepta[a]phenanthren-1-yl)ethanone] | < 0.1
7 | C[C@]1(O)CC[C@@H]2CC[C@@H]3[C@H](CC[C@]4(C)[C@H](C(=O)Cn5cc(C#N)cn5)CCC[C@@H]34)[C@@]2(C)CC1 [Example 45, 1-(2-((1R,4aS,4bR,6aS,9S,11aS,11bS,13aS)-9-hydroxy-9,11a,13a-trimethyloctadecahydro-1H-cyclohepta[a]phenanthren-1-yl)-2-oxoethyl)-1H-pyrazole-4-carbonitrile] | > 1
8 | C[C@]1(O)CC[C@H]2CC[C@@H]3[C@H](CC[C@]4(C)[C@H](C(=O)Cn5cc(C#N)cn5)CCC[C@@H]34)[C@H]2CC1 [Example 3] | > 1
9 | C[C@]1(O)CCC2=CC[C@H]3[C@@H]4CCC[C@H](C(=O)Cn5cc(C#N)cn5)[C@@]4(C)CC[C@@H]3[C@@]2(C)CC1 [Example 58, 1-(2-((1S,4aS,4bS,9S,11aR,11bS,13aS)-9-hydroxy-9,11a,13a-trimethyl-2,3,4,4a,4b,5,7,8,9,10,11,11a,11b,12,13,13a-hexadecahydro-1H-cyclohepta[a]phenanthren-1-yl)-2-oxoethyl)-1H-pyrazole-4-carbonitrile] | < 0.1
10 | C[C@]1(O)CC[C@@H]2CC[C@@H]3[C@H](CC[C@]4(C)[C@@H](C(=O)CCn5cc(C#N)cn5)CCC[C@@H]34)[C@@]2(C)CC1 [Example 54, 1-(3-((1S,4aS,4bR,6aS,9S,11aS,11bS,13aS)-9-hydroxy-9,11a,13a-trimethyloctadecahydro-1H-cyclohepta[a]phenanthren-1-yl)-3-oxopropyl)-1H-pyrazole-4-carbonitrile] | 0.1 to 1
11 | CC[C@]12CC[C@@](C)(O)CC[C@H]1CC[C@H]1[C@@H]3CC[C@H](C(C)=O)[C@@]3(C)CC[C@@H]12 [Example 25, 1-((1S,3aS,3bS,5aR,8S,10aS,10bS,12aS)-10a-ethyl-8-hydroxy-8,12a-dimethyloctadecahydrocyclohepta[a]cyclopenta[f]naphthalen-1-yl)ethanone] | 0.1 to 1
12 | CC[C@@]1(O)CCC[C@@]2(C)[C@H](CC[C@@H]3[C@@H]2CC[C@]2(C)[C@@H](C(=O)Cn4cc(C#N)cn4)CCC[C@@H]32)C1 [Example 38, 1-(2-((1S,4aS,4bR,6aR,8R,11aS,11bS,13aS)-8-ethyl-8-hydroxy-11a,13a-dimethyloctadecahydro-1H-cyclohepta[a]phenanthren-1-yl)-2-oxoethyl)-1H-pyrazole-4-carbonitrile] | 0.1 to 1
13 | COC[C@]1(O)CC[C@H]2CC[C@@H]3[C@H](CC[C@]4(C)[C@@H](C(=O)Cn5cc(C#N)cn5)CCC[C@@H]34)[C@@]2(C)CC1 [Example 55, 1-(2-((1S,4aS,4bR,6aR,9S,11aS,11bS,13aS)-9-hydroxy-9-(methoxymethyl)-11a,13a-dimethyloctadecahydro-1H-cyclohepta[a]phenanthren-1-yl)-2-oxoethyl)-1H-pyrazole-4-carbonitrile] | 0.1 to 1
14 | Cc1nnnn1CC(=O)[C@H]1CCCC[C@H]2[C@@H]3CC[C@@H]4C[C@](C)(O)CCC[C@]4(C)[C@H]3CC[C@]12C [Example 63, 1-((1S,5aS,5bR,7aR,9R,12aS,12bS,14aS)-9-hydroxy-9,12a,14a-trimethylicosahydrodicyclohepta[a,f]naphthalen-1-yl)-2-(5-methyl-1H-tetrazol-1-yl)ethanone] | 0.1 to 1
15 | CC[C@@]1(O)CCC[C@H]2[C@H](CC[C@@H]3[C@@H]2CC[C@]2(C)[C@@H](C(C)=O)CCC[C@@H]32)C1 [Example 13, 1-((1S,4aS,4bR,6aR,8R,11aS,11bR,13aS)-8-ethyl-8-hydroxy-13a-methyloctadecahydro-1H-cyclohepta[a]phenanthren-1-yl)ethan-1-one] | 0.1 to 1

Same assay, conditions: Table 5, 3 nM [35S]-TBPS, in the presence of 5 mM GABA, read-out: TBPS IC50

Row | Structure (SMILES) | IC50 [µM]
16 | C[C@@]1(O)CC[C@H]2[C@H](CC[C@@H]3[C@@H]2CC[C@H]2[C@H]3CCC[C@@H]2C(=O)Cn2cc(C#N)cn2)C1 [Example 78, 1-(2-((1S,4aS,4bR,6aR,8R,10aS,10bR,12aS)-8-hydroxy-8-methyloctadecahydrochrysen-1-yl)-2-oxoethyl)-1H-pyrazole-4-carbonitrile] | < 0.1
17 | Cc1nnn(CC(=O)[C@H]2CC[C@H]3[C@@H]4CC[C@@H]5C[C@](C)(O)CC[C@@H]5[C@H]4CC[C@@H]32)n1 [Example 69, 1-((3R,5R,8R,9R,10S,13S,14S,17S)-3-hydroxy-3-methylhexadecahydro-1H-cyclopenta[a]phenanthren-17-yl)-2-(5-methyl-2H-tetrazol-2-yl)ethan-1-one] | < 0.1
18 | Cc1nnn(CC(=O)[C@H]2CCC[C@H]3[C@@H]4CC[C@H]5C[C@](C)(O)CC[C@@H]5[C@H]4CC[C@@H]32)n1 [Example 80, 1-((1S,4aS,4bR,6aS,8R,10aS,10bR,12aS)-8-hydroxy-8-methyloctadecahydrochrysen-1-yl)-2-(5-methyl-2H-tetrazol-2-yl)ethanone] | < 0.1
19 | C[C@@]1(O)CC[C@H]2[C@H](CC[C@H]3[C@@H]4CC[C@H](C(=O)Cn5cc(C#N)cn5)[C@@H]4CC[C@@H]32)C1 [Example 84, 1-(2-((3R,5R,8R,9R,10S,13R,14S,17S)-3-hydroxy-3-methylhexadecahydro-1H-cyclopenta[a]phenanthren-17-yl)-2-oxoethyl)-1H-pyrazole-4-carbonitrile] | 0.1 to 1

Same assay, conditions: Table 6, 3 nM [35S]-TBPS, in the presence of 5 mM GABA, read-out: IC50

Row | Structure (SMILES) | IC50 [µM]
20 | CC[C@]12CC[C@H]3[C@@H](CC[C@@H]4C[C@](C)(O)CC[C@@]43C3CC3)[C@@H]1CC[C@@H]2C(=O)Cn1ccc(C#N)n1 [Example 90, 1-(2-((3R,5R,8S,9S,10R,13S,14S,17S)-10-cyclopropyl-13-ethyl-3-hydroxy-3-methylhexadecahydro-1H-cyclopenta[a]phenanthren-17-yl)-2-oxoethyl)-1H-pyrazole-3-carbonitrile] | < 0.1
